# Measurements as given in patent US11780815B2, “DNA2 inhibitors for cancer treatment” (City of Hope, priority 2016, dated 2023).
# Where two headings read alike, the source gives them in different places.
# Assays:
# [1] = tested on: drug-sensitive yeast strains (rad27 mutants, wild-type); assay: Yeast dilution assay, survival after MMS or high temperature; conditions: rad27 mutants lacking FEN1, serial 10 fold dilutions
# FEN1 = FEN1 (Homo sapiens, UniProt P39748); conditions: Liu et al EBioMedicine 6 (2016) 73-86; cited from earlier work
# FANCD2−/− fibroblasts = assay: Cisplatin sensitivity of FANCD2−/− cells; conditions: 125 nM cisplatin, 10 μM C5, compared to cells not treated with C5
# MCF7 cells = assay: Cell survival of control (shSCR) or DNA2 knockdown MCF7 cells; assay type: cell-based, human; conditions: 1 μM C5 for 4 days
# From the text: . […] The live cells were counted.
# [2] = tested on: panel of 18 cell lines of 4 major types of cancers; assay: Cell proliferation assay, panel of cancer cell lines
# A549 cells = assay: DNA fiber assay, replication fork restart; conditions: for percentage of restarting forks: 20 μM C5
# MCF7 breast cancer cells = assay: Clonogenic assay, combination with CPT or MK4827; assay type: cell-based, human; conditions: for IC50: Homo sapiens, MCF7
# Procedure: The survival rate of the cells treated with various concentrations of CPT was calculated by normalizing the number of colonies to that of the cells without CPT treatment. The survival rate of the cells without CPT treatment was arbitrarily set as 1. […] The IC50 and combination index (CI) was calculated using the Compusyn program. FIG. 7B: Representative inhibition curve of varying concentrations of C5 from 0 to 10 μM in combination with MK4827 (0 or 1 μM).
# To test our hypothesis that inhibition of DNA2 synergizes with other chemotherapeutic agents, we treated cells with CPT and C5.
# [3] = tested on: HCT116 DNA2 flox/+/+ cells; assay: Synthetic lethality of C5 with FEN1, EXO1 or MRE11 siRNA knockdown; assay type: cell-based, human
# Procedure: FIGS. 13A-13C. Synergy between C5 and FEN1. […] . On day 1, HCT116 DNA2^flox/+/+ and HCT116 DNA2^flox/−/− cells (3*10^6 were plated in 10 cm dishes, respectively. On day 2, the genetic knockout of DNA2 was induced with tamoxifen as previously described (Karanja et al., 2014). Control wells contained EtOH. On day 3, the tamoxifen floxed cells, now DNA2^−/+/+ and DNA2^−/−/−, and DNA2^flox/+/+ controls were plated on 24 well plates, 20,000 to 30,000 cells per well, and incubated overnight. On day 4, wells were transfected with 20 pmole control SCR siRNA or FEN1 (FIG. 13A), EXO1 (FIG. 13B), or MRE11 (FIG. 13C) si RNAs, respectively, as previously described using GeneMute. siRNAs were obtained from Invitrogen: FEN1 (HSS103627, HSS103629, HSS176903), MRE11 (HSS142960, HSS142961, HSS181171), EXO1 (HSS113557, HSS113558, HSS113559). Cells were incubated overnight. […] . Cells were cultured for an additional 3 days, until DNA2 ^flox/+/+ cells lacking C5 were confluent. As a control for the efficacy of C5, the effect of genetic knockdown of DNA2 was tested in the presence the respective siRNA treated DNA2^−/−/− (gray curves). Cells were then washed with PBS, trypsinized and stained with tryphan blue to differentiate live cells from dead cells. Cells were counted microscopically in a Neubauer chamber. Error bars represent data from duplicate experiments. […] .
# In yeast, pathways mediated by DNA2 overlap with repair or replication by FEN1, EXO1, or MRE11 and not with others (Budd, M. E., Tong, A. H., Polaczek, P., Peng, X., Boone, C., and Campbell, J. L. (2005). A network of multi-tasking proteins at the DNA replication fork preserves genome stability. PLoS genetics 1, e61). Thus, mutants defective in FEN1, EXO1, or MRE11 are viable only in the presence of active DNA2. Double mutants deficient in DNA2 and FEN1, EXO1, or MRE11, respectively, are inviable, especially in the presence of DNA damage. This effect is called synthetic lethality. To test for synthetic lethality, deficiency in DNA2, can be induced either by genetic mutation or, if a specific inhibitor is available, by inhibition of DNA2. We reasoned that if DNA2 is the major cellular target of C5, then cells deficient in FEN1, EXO1, or MRE11 should be hypersensitive to C5, i.e. C5 should synergize with deficiency in any one of these three genes. We have now shown that this is the case in both yeast and in human cells (FIGS. 13A-13C, human cells and FIG. 14, yeast cells). […] . […] After floxing, i.e. induction of Cre nuclease with tamoxifen, this strain becomes a complete DNA2 knockout. […] .
# [4] = tested on: BRCA2- or BOD1L-depleted or mock transfected U2OS cells; assay: P-RPA foci in fork protection defective cells after HU; assay type: cell-based, human
# From the text: Fork protection is a DNA break repair-independent pathway suppressing genomic instability (Schlacher et al, 2011; Schlacher et al, 2012). The fork protection pathway is mediated by BRCA2, BRCA1, RAD51, members of the Fanconi anemia pathway, and […]. In the absence of any of these factors, excessive nascent DNA degradation occurs at stalled replication forks. This degradation is prevented if the end-resection protein MRE11 is inhibited either by siRNA knockdown or by inhibition of MRE11 nuclease by the small molecule mirin (Schlacher et al., 2011; Schlacher et al., 2012). MRE11 functions upstream of DNA2 in resection of double-strand breaks, and DNA2, in addition to MRE11 has been implicated in over-resection at stalled replication forks in BOD1L and in RAD51 impaired cells, since over-resection is suppressed by knockdown of DNA2 in the absence of BOD1L or in a RAD51 mutant cell line (Higgs et al., 2015; Wang et al., 2015). […] . After treatment of the BRCA2- or BOD1L-depleted U2OS cells with HU, which stalls forks but is not expected to produce DSBs (Petermann et al., 2010; Schlacher et al., 2011; Schlacher et al., 2012), and which are fork protection defective, we observed a dramatic increase in P-RPA positive cells indicative of nascent DNA degradation upon treatment with HU (FIGS. 6C and FIG. 12B). […] . The potency of C5 was estimated by comparing the effect of mirin, the MRE11 inhibitor, in the same experiment. […] . Our results are in keeping with previous work showing that knockdown of DNA2 counteracts excessive nascent strand degradation in both BOD1L and in RAD51 impaired cells (Higgs et al., 2015; Wang et al., 2015). […] .
# [5] = tested on: U2OS cells carrying the GFP reporter gene; assay: DSB repair reporter assays (I-SceI/GFP, HDR and SSA); assay type: cell-based, human
# From the text: To further validate C5 as a DNA2 inhibitor, we tested its effects on DNA2 functions known to be affected by knockdown or deletion of DNA2 in previous studies (Howard et al., 2015; Karanja et al., 2014; Karanja et al., 2012; Peng et al., 2012). We first determined the effect of C5 on two recombination pathways, SSA (single-strand annealing) and homologous recombination (HR), using I-SceI/GFP-based reporter assays. […] . HDR-GFP and SSA-GFP were integrated in U2OS cells (Gunn and Stark, 2012; Howard et al., 2015). […] . The cells were harvested and the GFP+ frequencies (repair frequencies) were determined by flow cytometry using a CyAn ADP Analyzer (Beckman Coulter, Inc.).
# [6] = tested on: phosphorylated RPA2 and γH2AX in MCF7 and A549 cells; assay: Phosphorylated RPA and γH2AX after CPT (western blot, immunofluorescence)
# [7] = tested on: mouse embryonic stem (MES) cells; assay: Cell survival of WT and DNA2 knockout MES cells; assay type: cell-based; conditions: 1 μM C5 for 4 days
# FEN1, sequence (P39748 whole entry, species assumed): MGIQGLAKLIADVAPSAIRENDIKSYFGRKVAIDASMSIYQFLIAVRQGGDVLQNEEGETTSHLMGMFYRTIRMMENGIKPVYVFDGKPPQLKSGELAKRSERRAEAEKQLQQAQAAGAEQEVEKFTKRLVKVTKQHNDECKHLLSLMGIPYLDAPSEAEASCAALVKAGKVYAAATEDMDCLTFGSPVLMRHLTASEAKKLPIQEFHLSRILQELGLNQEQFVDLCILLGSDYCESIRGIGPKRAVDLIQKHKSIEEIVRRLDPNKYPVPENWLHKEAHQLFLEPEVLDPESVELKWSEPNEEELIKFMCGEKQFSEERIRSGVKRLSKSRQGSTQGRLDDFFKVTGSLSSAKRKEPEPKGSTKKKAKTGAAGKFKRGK
smiles,measurement,setting,value
CCCCNC(=O)c1c[nH]c2c([N+](=O)[O-])cccc2c1=O [C5-2],sensitisation of rad27 yeast to DNA damage,[1],more effective than C5
O=C(O)c1cnc2c([N+](=O)[O-])cccc2c1O [C5],sensitisation of rad27 yeast to DNA damage,[1],synergizes with MMS and with deletion of rad27
same,inhibition of FEN1,FEN1,not inhibited
same,survival of cisplatin-treated cells,FANCD2−/− fibroblasts,increase in survival
same,effect on survival rate,MCF7 cells; DNA2 knockdown human cancer cells,did not further reduce the survival rate
same,survival rate compared to the untreated WT control,MCF7 cells; human cancer cells (printed MEF7),60%
same,cytotoxicity to human cancer cells among the nuclease-inhibiting hits,[2],highest cytotoxicity
same,percentage of restarting forks,"A549 cells; CPT-treated cells (150 nM CPT), 75% in absence of C5",50%
same,percentage of restarting forks,"A549 cells; HU-treated cells (2 mM HU), 80% in absence of C5",60%
same,replication fork restart,"A549 cells; high levels of CPT (2 μM), 10 μM C5",inhibited restart
same,"combination with MK4827, survival of MCF7 cells","MCF7 breast cancer cells; C5 0 to 10 μM, MK4827 0 to 1 μM",strong synergistic effect
same,"combination with CPT, cellular lethality",MCF7 breast cancer cells; C5 1 μM with different concentrations of CPT,synergistic
same,IC50,MCF7 breast cancer cells,1.9 µM
same,combination index,"MCF7 breast cancer cells; MK4827 (1 μM) and C5 (2 μM), Compusyn",0.13
same,cell killing by increasing levels of C5,[3]; scrambled siRNA,resistant
same,cell killing by increasing levels of C5,[3]; siRNA knockdown of EXO1,killed by increasing levels of C5
same,cell killing by increasing levels of C5,[3]; siRNA knockdown of FEN1,killed by increasing levels of C5
same,cell killing by increasing levels of C5,[3]; siRNA knockdown of MRE11,killed by increasing levels of C5
same,nascent DNA degradation (P-RPA positive cells),"[4]; BRCA2- or BOD1L-depleted U2OS cells, 4 mM HU 5 h, 20 μM C5",suppressed
same,potency in reducing nascent DNA degradation relative to mirin,"[4]; BRCA2- or BOD1L-depleted U2OS cells, HU, 20 μM C5",comparable potency to 50 μM mirin
same,reduction in P-RPA foci,"[4]; BRCA2-deficient cells, 4 mM HU 5 h",equivalent to that observed in a DNA2 knockdown
same,number of P-RPA positive cells,"[4]; mock-depleted cells, absence of HU",neither mirin nor C5 significantly decreased
same,HR (homologous recombination) frequency,"[5]; 0, 10, 20, 40, 60 μM C5, 72 h",reduced by C5 in a dose-dependent manner
same,SSA (single-strand annealing) frequency,"[5]; 0, 10, 20, 40, 60 μM C5, 72 h",reduced by C5 in a dose-dependent manner
same,HR frequency compared with siRNA DNA2 knockdown,[5]; 60 μM C5,reduced to the same level as in an siRNA DNA2 knockdown
same,SSA frequency compared with siRNA DNA2 knockdown,[5]; 60 μM C5,reduced to the same level as in an siRNA DNA2 knockdown
same,CPT-induced P-RPA level in γH2AX-positive cells,"[6]; 10 μM C5 for 24 hours, then 1 μM CPT for 4 hours",significantly reduced
same,γH2AX level,"[6]; C5 alone, 10 μM",background increase
same,effect on survival rate,[7],did not further reduce the survival rate
"NC(=O)c1cccc2cn(-c3ccc([C@@H]4CCCNC4)cc3)nc12 [MK4827, 2-{4-[(3S)-piperidin-3-yl]phenyl}-2H-indazole-7-carboxamide, reference compound]",IC50,"MCF7 breast cancer cells; clonogenic assay, single agent, read-out: IC50",0.8 µM
